System: P12-ICHIKAWA
Experiment: selective drug sensitivity score (sDSS, relative to normal bone marrow) (sDSS (score)); higher = more potent and effective on the cell line relative to normal bone marrow cells
Conditions: 72 h
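Also: ALL cell lines in 384-well plates, five doses spanning 10,000-fold, each plate scaled between vehicle and 100 µmol/L benzalkonium chloride controls, sDSS an adapted area-under-curve metric.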

Row | Structure (SMILES) | selective drug sensitivity score
1 | Oc1ncnc2[nH]ncc12 [Allopurinol] (top concentration 10000 nM) | -0.64
2 | CC(C)n1cnc2c(NCCc3ccc(O)cc3)nc(-c3csc4ccccc34)nc21 [StemRegenin_1] (top concentration 10000 nM) | 0.2
3 | C#Cc1cccc(Nc2ncnc3cc4c(cc23)OCCOCCOCCO4)c1 [Icotinib] (top concentration 10000 nM) | 0.6
4 | CN[C@@H](C)C(=O)N[C@H]1CN(C(=O)CC(C)C)CC[C@H]2CC[C@@H](C(=O)NC(c3ccccc3)c3ccccc3)N2C1=O [AT-406] (top concentration 10000 nM) | -1.26
5 | CC(C)(O)CC(=O)NCCn1ccc2ncnc(Nc3ccc(Oc4cccc(C(F)(F)F)c4)c(Cl)c3)c21 [TAK-285] (top concentration 2500 nM) | 0
6 | COc1cc(C)[nH]c(=O)c1CNC(=O)c1c(C)n([C@H](C)C2CCOCC2)c2ccccc12 [CPI-360] (top concentration 10000 nM) | 0
7 | Cc1cc2c(C(=O)NC[C@H](C)c3ccccc3)c(O)c(O)cc2c(O)c1-c1c(C)cc2c(C(=O)NC[C@H](C)c3ccccc3)c(O)c(O)cc2c1O [Sabutoclax] (top concentration 25000 nM) | 13.7
8 | CC(C)(C)C[C@@H]1N[C@@H](C(=O)N[C@H]2CC[C@H](O)CC2)[C@H](c2cccc(Cl)c2F)[C@]12C(=O)Nc1cc(Cl)ccc12 (top concentration 10000 nM) | -5.24
9 | C[C@@H]1C[C@H]2[C@@H]3CCC4=CC(=O)C=C[C@]4(C)[C@@]3(F)[C@@H](O)C[C@]2(C)[C@@]1(O)C(=O)CO [Dexamethasone] (top concentration 10000 nM) | 28

System: P30-OHKUBO
Experiment: as above
Conditions: 72 h

Row | Structure (SMILES) | selective drug sensitivity score
10 | Nc1nc2cc(-c3ccc4ncc(C(=O)N5CCOCC5)n4c3)ccc2o1 [Serabelisib] (top concentration 10000 nM) | 1.46
11 | COc1cccc(-c2ccc(NC(=O)C3=C(C(=O)O)CCC3)c(F)c2)c1 [Vidofludimus] (top concentration 10000 nM) | 3
12 | Cc1cccc(-c2nn3c(c2-c2ccnc4ccc(C(N)=O)cc24)CCC3)n1 [Galunisertib] (top concentration 1000 nM) | 2.9
13 | COc1cc2c(N3CCN(C(=O)Nc4ccc(OC(C)C)cc4)CC3)ncnc2cc1OCCCN1CCCCC1 [Tandutinib] (top concentration 1000 nM) | 0
14 | Cc1c(F)cc(C(=O)NC2CC2)cc1-c1ccc(C(=O)NCC(C)(C)C)cn1 [Losmapimod] (top concentration 10000 nM) | 7.82
15 | Nc1nc(N)c2nc(-c3cccc(O)c3)c(-c3cccc(O)c3)nc2n1 [TG100-115] (top concentration 10000 nM) | 3.6
16 | C[C@]12CC[C@@H]3c4ccc(O)cc4C[C@@H](CCCCCCCCC[S+]([O-])CCCC(F)(F)C(F)(F)F)[C@H]3[C@@H]1CC[C@@H]2O (stereo not given in full) [Fulvestrant] (top concentration 1000 nM) | 0
17 | O=C(Nc1cccnc1)N1CCC(Cc2cccc(Oc3ccc(C(F)(F)F)cn3)c2)CC1 [PF-3845] (top concentration 10000 nM) | 0.46
18 | COc1cc2c(cc1OCCCN1CCCC1)N=C(N)C21CCC1 [A-366] (top concentration 25000 nM) | 2.56
19 | Oc1ncnc2[nH]ncc12 [Allopurinol] (top concentration 10000 nM) | 0.96
20 | CC(C)n1cnc2c(NCCc3ccc(O)cc3)nc(-c3csc4ccccc34)nc21 [StemRegenin_1] (top concentration 10000 nM) | 2.2
21 | C#Cc1cccc(Nc2ncnc3cc4c(cc23)OCCOCCOCCO4)c1 [Icotinib] (top concentration 10000 nM) | 2.1
22 | CN[C@@H](C)C(=O)N[C@H]1CN(C(=O)CC(C)C)CC[C@H]2CC[C@@H](C(=O)NC(c3ccccc3)c3ccccc3)N2C1=O [AT-406] (top concentration 10000 nM) | -1.06
23 | CC(C)(O)CC(=O)NCCn1ccc2ncnc(Nc3ccc(Oc4cccc(C(F)(F)F)c4)c(Cl)c3)c21 [TAK-285] (top concentration 2500 nM) | 0
24 | COc1cc(C)[nH]c(=O)c1CNC(=O)c1c(C)n([C@H](C)C2CCOCC2)c2ccccc12 [CPI-360] (top concentration 10000 nM) | 1.8
25 | Cc1cc2c(C(=O)NC[C@H](C)c3ccccc3)c(O)c(O)cc2c(O)c1-c1c(C)cc2c(C(=O)NC[C@H](C)c3ccccc3)c(O)c(O)cc2c1O [Sabutoclax] (top concentration 25000 nM) | 15.9
26 | CC(C)(C)C[C@@H]1N[C@@H](C(=O)N[C@H]2CC[C@H](O)CC2)[C@H](c2cccc(Cl)c2F)[C@]12C(=O)Nc1cc(Cl)ccc12 (top concentration 10000 nM) | 12.4
27 | C[C@@H]1C[C@H]2[C@@H]3CCC4=CC(=O)C=C[C@]4(C)[C@@]3(F)[C@@H](O)C[C@]2(C)[C@@]1(O)C(=O)CO [Dexamethasone] (top concentration 10000 nM) | 28.6

System: RPMI-8402
Experiment: as above
Conditions: 72 h

Row | Structure (SMILES) | selective drug sensitivity score
28 | Nc1nc2cc(-c3ccc4ncc(C(=O)N5CCOCC5)n4c3)ccc2o1 [Serabelisib] (top concentration 10000 nM) | -1.54
29 | COc1cccc(-c2ccc(NC(=O)C3=C(C(=O)O)CCC3)c(F)c2)c1 [Vidofludimus] (top concentration 10000 nM) | 3.9
30 | Cc1cccc(-c2nn3c(c2-c2ccnc4ccc(C(N)=O)cc24)CCC3)n1 [Galunisertib] (top concentration 1000 nM) | 0
31 | COc1cc2c(N3CCN(C(=O)Nc4ccc(OC(C)C)cc4)CC3)ncnc2cc1OCCCN1CCCCC1 [Tandutinib] (top concentration 1000 nM) | 0
32 | Cc1c(F)cc(C(=O)NC2CC2)cc1-c1ccc(C(=O)NCC(C)(C)C)cn1 [Losmapimod] (top concentration 10000 nM) | -0.18
33 | Nc1nc(N)c2nc(-c3cccc(O)c3)c(-c3cccc(O)c3)nc2n1 [TG100-115] (top concentration 10000 nM) | 0
34 | C[C@]12CC[C@@H]3c4ccc(O)cc4C[C@@H](CCCCCCCCC[S+]([O-])CCCC(F)(F)C(F)(F)F)[C@H]3[C@@H]1CC[C@@H]2O (stereo not given in full) [Fulvestrant] (top concentration 1000 nM) | 0
35 | O=C(Nc1cccnc1)N1CCC(Cc2cccc(Oc3ccc(C(F)(F)F)cn3)c2)CC1 [PF-3845] (top concentration 10000 nM) | 4.66
36 | COc1cc2c(cc1OCCCN1CCCC1)N=C(N)C21CCC1 [A-366] (top concentration 25000 nM) | 4.06
37 | Oc1ncnc2[nH]ncc12 [Allopurinol] (top concentration 10000 nM) | -0.64
38 | CC(C)n1cnc2c(NCCc3ccc(O)cc3)nc(-c3csc4ccccc34)nc21 [StemRegenin_1] (top concentration 10000 nM) | -0.7
39 | C#Cc1cccc(Nc2ncnc3cc4c(cc23)OCCOCCOCCO4)c1 [Icotinib] (top concentration 10000 nM) | 2.3
40 | CN[C@@H](C)C(=O)N[C@H]1CN(C(=O)CC(C)C)CC[C@H]2CC[C@@H](C(=O)NC(c3ccccc3)c3ccccc3)N2C1=O [AT-406] (top concentration 10000 nM) | -0.96
41 | CC(C)(O)CC(=O)NCCn1ccc2ncnc(Nc3ccc(Oc4cccc(C(F)(F)F)c4)c(Cl)c3)c21 [TAK-285] (top concentration 2500 nM) | 0
42 | COc1cc(C)[nH]c(=O)c1CNC(=O)c1c(C)n([C@H](C)C2CCOCC2)c2ccccc12 [CPI-360] (top concentration 10000 nM) | 0
43 | Cc1cc2c(C(=O)NC[C@H](C)c3ccccc3)c(O)c(O)cc2c(O)c1-c1c(C)cc2c(C(=O)NC[C@H](C)c3ccccc3)c(O)c(O)cc2c1O [Sabutoclax] (top concentration 25000 nM) | 4.38
44 | CC(C)(C)C[C@@H]1N[C@@H](C(=O)N[C@H]2CC[C@H](O)CC2)[C@H](c2cccc(Cl)c2F)[C@]12C(=O)Nc1cc(Cl)ccc12 (top concentration 10000 nM) | -3.34
45 | C[C@@H]1C[C@H]2[C@@H]3CCC4=CC(=O)C=C[C@]4(C)[C@@]3(F)[C@@H](O)C[C@]2(C)[C@@]1(O)C(=O)CO [Dexamethasone] (top concentration 10000 nM) | 3.18

— the supplement of paper PMC8967900
